US20250129090A1, “COMPOSITIONS USEFUL FOR MODULATING SPLICING” (SKYHAWK THERAPEUTICS, INC., priority 2021, published 2025)

Tests used:
total ATXN3 protein = assay: ATXN3 Total Protein Assay; type: cell-based; details: Human neuroblastoma SK-N-MC cells, incubation 48 hours, MSD assay; read-out: ATXN3 Protein Potency IC50
Experimental: Human neuroblastoma SK-N-MC cells were seeded at 10,000 cells/well in 384 well plates one day prior to compound treatment. The concentrations of compounds were tested at appropriate doses ranging from 30 μM to 0.6 nM. After incubation for 48 hours, the cells were lysed with 25 μL of lysis buffer containing protease inhibitors, and total ATXN3 protein levels were assessed by Mesoscale Discovery (MSD) assay developed with one pair of anti-ATXN3 antibodies. The capture and detect antibodies were raised in mouse and rabbit respectively. Anti-rabbit MSD-ST antibody was used for secondary antibody.
ATXN3 recombinant protein was used for standards. The readouts were captured with 35 μL of MSD read buffer and multi-array 384-well high binding plates.

[1] = tested on: exon 4 skipped transcripts of ATXN3; assay: ATXN3 Quantitative Splicing Assay; type: cell-based; details: Human neuroblastoma SK-N-MC cells, treated 24 h, qPCR; read-out: ATXN 3 E4 Skipping EC50
Experimental: Human neuroblastoma SK-N-MC cells were plated in 384-well plates at 20,000 cells/well. Twenty-four hours after plating, cells were treated with compounds for 24 h at appropriate concentrations ranging from 30 µM to 0.6 nM (0.3% DMSO). Treated cells were lysed in 15 μL of lysis buffer, and cDNA was synthesized using the Fast Advanced Cells-to-Ct kit. Two μL of each cDNA was used in qPCR reactions to confirm the exon 4 skipped transcripts of ATXN3. A second set of primers/probe E4E5 was used to detect the transcripts containing exon 4. The third set of primers/probe E8E9 was used to detect total gene level of ATXN3. The qPCR reactions were prepared in 384-well plates in 10 μL volume, using TaqMan™ Fast Advanced Master Mix with primers and probes shown in the table below. Reactions were run in a Quant Studio 6 qPCR instrument with default settings.
The primers and probes are listed below in Table 3.

| SMILES | IC50 (total ATXN3 protein) [µM] | EC50 [1] [µM] |
| --- | --- | --- |
| Cc1csc2c(NCc3cccs3)nnnc12 [Compound 1, 7-methyl-N-(thiophen-2-ylmethyl)thieno[3,2-d][1,2,3]triazin-4-amine] | ≥ 10 | ≥ 10 |
| Cc1c(C[C@H](C)N)sc2c(NCc3cccs3)nnnc12 [Compound 2, (S)-6-(2-aminopropyl)-7-methyl-N-(thiophen-2-ylmethyl)thieno[3,2-d][1,2,3]triazin-4-amine] | 0.501 to 5 | 0.501 to 5 |
| Cc1csc2c(NCc3ccco3)nnnc12 [Compound 3, N-(furan-2-ylmethyl)-7-methylthieno[3,2-d][1,2,3]triazin-4-amine] | ≥ 10 | ≥ 10 |
| Cc1c(C[C@H](C)N)sc2c(NCc3ccco3)nnnc12 [Compound 4, (S)-6-(2-aminopropyl)-N-(furan-2-ylmethyl)-7-methylthieno[3,2-d][1,2,3]triazin-4-amine] | 0.501 to 5 | ≥ 10 |
